Measurements reported in patent US20170137387A1, “PHARMACOLOGICALLY ACTIVE QUINAZOLINEDIONE DERIVATIVES” (ORION CORPORATION, priority 2014, published 2017).

Experiments:
[1] = target: T1, human GABAB1 and GABAB2 receptor subunits (Homo sapiens, UniProt O75899+Q9UBS5); assay: Potentiation of GABA dose-response, FLIPR calcium assay; format: cell-based; conditions: compound at 10 μM; EC50 of GABA divided by EC50 of GABA in the presence of positive allosteric modulator
T1 construct: expressed in transfected cells; host or cells: CHO cells
T1 sequence (Q9UBS5 15-961 limits assumed): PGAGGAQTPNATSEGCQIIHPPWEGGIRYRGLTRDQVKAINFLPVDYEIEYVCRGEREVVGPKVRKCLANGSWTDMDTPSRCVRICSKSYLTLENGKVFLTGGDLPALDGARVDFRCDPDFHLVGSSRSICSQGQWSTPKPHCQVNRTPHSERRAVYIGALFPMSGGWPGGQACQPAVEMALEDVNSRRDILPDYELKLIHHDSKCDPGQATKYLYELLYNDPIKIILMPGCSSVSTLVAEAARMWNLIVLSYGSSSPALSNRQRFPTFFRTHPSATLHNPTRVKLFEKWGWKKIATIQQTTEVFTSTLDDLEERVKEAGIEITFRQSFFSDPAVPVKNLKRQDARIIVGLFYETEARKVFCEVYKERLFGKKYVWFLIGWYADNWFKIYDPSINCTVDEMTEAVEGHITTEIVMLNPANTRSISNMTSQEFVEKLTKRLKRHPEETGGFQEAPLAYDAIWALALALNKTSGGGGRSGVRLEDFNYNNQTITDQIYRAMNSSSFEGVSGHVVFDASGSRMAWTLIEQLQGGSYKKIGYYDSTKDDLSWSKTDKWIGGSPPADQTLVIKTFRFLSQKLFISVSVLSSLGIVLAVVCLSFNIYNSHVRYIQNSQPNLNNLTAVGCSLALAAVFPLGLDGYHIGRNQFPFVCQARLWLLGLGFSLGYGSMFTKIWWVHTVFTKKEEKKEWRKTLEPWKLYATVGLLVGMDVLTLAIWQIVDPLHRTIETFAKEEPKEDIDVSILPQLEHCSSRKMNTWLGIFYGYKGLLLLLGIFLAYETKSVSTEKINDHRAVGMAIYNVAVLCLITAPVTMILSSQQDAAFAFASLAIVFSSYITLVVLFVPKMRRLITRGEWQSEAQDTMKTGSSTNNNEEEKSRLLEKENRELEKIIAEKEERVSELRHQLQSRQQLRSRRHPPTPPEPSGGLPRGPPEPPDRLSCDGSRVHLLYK
T1 sequence (O75899 42-941): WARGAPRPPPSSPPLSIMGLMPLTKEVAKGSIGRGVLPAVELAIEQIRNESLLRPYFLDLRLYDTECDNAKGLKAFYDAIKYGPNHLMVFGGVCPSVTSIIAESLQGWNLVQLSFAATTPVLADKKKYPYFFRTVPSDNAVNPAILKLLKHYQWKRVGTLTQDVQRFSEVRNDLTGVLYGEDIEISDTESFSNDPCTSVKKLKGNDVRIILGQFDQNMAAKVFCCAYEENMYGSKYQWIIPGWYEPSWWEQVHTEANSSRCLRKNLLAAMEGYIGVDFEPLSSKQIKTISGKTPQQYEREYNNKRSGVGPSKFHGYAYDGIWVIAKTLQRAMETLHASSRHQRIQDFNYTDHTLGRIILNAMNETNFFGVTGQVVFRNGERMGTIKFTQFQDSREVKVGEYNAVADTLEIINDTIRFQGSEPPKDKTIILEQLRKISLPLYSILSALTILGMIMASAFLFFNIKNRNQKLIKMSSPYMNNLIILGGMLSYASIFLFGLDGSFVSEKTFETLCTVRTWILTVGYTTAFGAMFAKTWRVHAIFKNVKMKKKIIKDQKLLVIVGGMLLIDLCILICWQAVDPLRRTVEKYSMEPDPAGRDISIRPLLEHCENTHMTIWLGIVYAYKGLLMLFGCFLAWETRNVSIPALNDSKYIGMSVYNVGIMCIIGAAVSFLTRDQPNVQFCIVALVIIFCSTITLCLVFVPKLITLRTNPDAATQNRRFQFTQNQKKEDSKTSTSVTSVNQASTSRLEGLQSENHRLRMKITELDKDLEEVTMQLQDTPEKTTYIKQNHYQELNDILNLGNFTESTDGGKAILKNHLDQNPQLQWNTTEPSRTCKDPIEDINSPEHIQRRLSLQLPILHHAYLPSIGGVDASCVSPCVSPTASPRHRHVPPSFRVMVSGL
Protocol: (§1) CHO cells expressing the human GABAB1 and GABAB2 receptor subunits co-expressing promiscuous Galpha16 proteins to force couple the receptor to the intracellular calcium signalling pathway were used to study GABAB pharmacology in vitro. The cells were maintained at 37° C. in a 5% CO2 95% air atmosphere in HAM F-12 medium supplemented with 10% foetal bovine serum and selection antibiotics.
(§2) The day before the experiment the cells were detached and plated into black-walled clear bottom 384-well plates at a cell density of 20 000 cells per well. The growth medium was removed and the cells were incubated with FLIPR Calcium 5 Assay reagent (Molecular Devices, CA, USA) diluted 1:1 in Probenecid-Ringer for 1 h at 37° C. in dark. Probenecid-Ringer buffer consisted of 150 mM NaCl, 3 mM KCl, 1.2 mM MgCl2, 1 mM CaCl2, 5 mM glucose, 20 mM 2-(4-(2-hydroxyethyl)piperazin-1-yl)ethanesulfonic acid (HEPES), and 2.5 mM Probenecid (pH 7.4 adjusted with 1.0 M NaOH and osmolarity adjusted to […]). Compounds were dissolved in Probenecid-Ringer. […] The samples were excited at 470-495 nm and emission was detected at 515-575 nm. All experiments were performed at 37° C.
(§3) Baseline fluorescence minimum was subtracted from maximum for the calculation of agonism and positive allosteric modulator pharmacology. Both in the agonism mode and in the allosteric mode, the efficacy was related to the intrinsic activity (IA) of the endogenous agonist GABA at 30 μM (positive allosteric modulator efficacy at 10 μM/GABA efficacy or agonism efficacy at 30 μM/GABA efficacy). To determine potentiation of GABA dose-response, the compounds, at a concentration of 10 μM diluted in Probenecid-Ringer, were added by FLIPR tetra followed by addition of GABA (diluted in water in the concentration range 0.123-10 μM). The EC50 values were determined using a four-parameter logistic fit (model 205 in ActivityBase XE). The EC50 value of GABA was divided with the EC50 value of GABA in the presence of positive allosteric modulator to determine potentiation of GABA dose-response EC50 value.

[2] = target: T1, human GABAB1 and GABAB2 receptor subunits; assay: Agonism and positive allosteric modulator pharmacology in vitro, two-addition FLIPR calcium assay; format: cell-based; conditions: CHO cells co-expressing Galpha16; for IA (GABAB agonism): agonism efficacy at 30 μM / GABA efficacy at 30 μM; for IA (GABAB positive allosteric modulation): positive allosteric modulator efficacy at 10 μM (with EC10.5 GABA) / GABA efficacy at 30 μM
Protocol: as §1, §2
A two-addition protocol was used to determine agonism and positive allosteric modulator pharmacology in the same assay using a kinetic read out. Agonism pharmacology of compounds was studied in the first addition in the concentration range 0.123-30 μM in quadruplicate at each concentration. In the second addition, a low (EC10.5) concentration of GABA was applied to detect the positive allosteric modulator pharmacology of the compounds to be studied. The EC10.5 concentration was determined from the GABA EC50 value using the formula ECF≈(F/(100-F))^1/H·EC50, wherein F is the fraction of full response and H is Hill slope.
as §3

Structure (SMILES)	Potentiation of GABA (fold) [1] [fold]	IA (GABAB agonism) [2]	IA (GABAB positive allosteric modulation) [2]
Cn1c(=O)n(C2CCCc3ccccc32)c(=O)c2ccc(C(F)(F)F)cc21 (stereo not drawn) [Example 12, 1-Methyl-3-(1,2,3,4-tetrahydronaphthalen-1-yl)-7-(trifluoromethyl)quinazoline-2,4(1H,3H)-dione]	25.8	0.20	0.67
Cn1c(=O)n(Cc2ccc([N+](=O)[O-])cc2)c(=O)c2ccc(F)cc21 [Example 40, 7-Fluoro-1-methyl-3-(4-nitrobenzyl)quinazoline-2,4(1H,3H)-dione]	1.5	0.04	0.26
